Results: patent US20120202856A1, “SUBSTITUTED BENZIMDAZOLE DERIVATIVES USEFUL AS TRPM8 RECEPTOR MODULATORS” (priority 2011, published 2012)
Structures can show the parent of a compound that is named as a salt.

Biological target: T1, canine TRPM8 (Canis lupus familiaris, UniProt Q1A7N1)
T1 construct: expressed in transfected cells
Assay: In Vitro Canine TRPM8 Functional Assay (intracellular Ca2+ fluorescence, icilin activation, HEK293 cells)
Format: cell-based
Details: for inhibition at 0.2 µM: HEK293, 0.2 μM test compound, individually measured values, read-out: % Inh (%) @0.2 μM, in vitro TRP M8 Activity; for IC50: HEK293 cells expressing canine TRPM8, icilin activation, individually measured values (batches/salt forms), read-out: IC50 (nM), in vitro TRP M8 Activity
Summary of the method: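 HEK293 cells expressing canine TRPM8 loaded with Calcium 3 dye, then stimulated with icilin; intracellular Ca2+ rise read on FLIPR or FDSS. Peak fluorescence minus basal normalized to percent maximal response; IC50 from sigmoidal nonlinear regression of quadruplicate wells.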

T1 sequence (Q1A7N1 1-1104): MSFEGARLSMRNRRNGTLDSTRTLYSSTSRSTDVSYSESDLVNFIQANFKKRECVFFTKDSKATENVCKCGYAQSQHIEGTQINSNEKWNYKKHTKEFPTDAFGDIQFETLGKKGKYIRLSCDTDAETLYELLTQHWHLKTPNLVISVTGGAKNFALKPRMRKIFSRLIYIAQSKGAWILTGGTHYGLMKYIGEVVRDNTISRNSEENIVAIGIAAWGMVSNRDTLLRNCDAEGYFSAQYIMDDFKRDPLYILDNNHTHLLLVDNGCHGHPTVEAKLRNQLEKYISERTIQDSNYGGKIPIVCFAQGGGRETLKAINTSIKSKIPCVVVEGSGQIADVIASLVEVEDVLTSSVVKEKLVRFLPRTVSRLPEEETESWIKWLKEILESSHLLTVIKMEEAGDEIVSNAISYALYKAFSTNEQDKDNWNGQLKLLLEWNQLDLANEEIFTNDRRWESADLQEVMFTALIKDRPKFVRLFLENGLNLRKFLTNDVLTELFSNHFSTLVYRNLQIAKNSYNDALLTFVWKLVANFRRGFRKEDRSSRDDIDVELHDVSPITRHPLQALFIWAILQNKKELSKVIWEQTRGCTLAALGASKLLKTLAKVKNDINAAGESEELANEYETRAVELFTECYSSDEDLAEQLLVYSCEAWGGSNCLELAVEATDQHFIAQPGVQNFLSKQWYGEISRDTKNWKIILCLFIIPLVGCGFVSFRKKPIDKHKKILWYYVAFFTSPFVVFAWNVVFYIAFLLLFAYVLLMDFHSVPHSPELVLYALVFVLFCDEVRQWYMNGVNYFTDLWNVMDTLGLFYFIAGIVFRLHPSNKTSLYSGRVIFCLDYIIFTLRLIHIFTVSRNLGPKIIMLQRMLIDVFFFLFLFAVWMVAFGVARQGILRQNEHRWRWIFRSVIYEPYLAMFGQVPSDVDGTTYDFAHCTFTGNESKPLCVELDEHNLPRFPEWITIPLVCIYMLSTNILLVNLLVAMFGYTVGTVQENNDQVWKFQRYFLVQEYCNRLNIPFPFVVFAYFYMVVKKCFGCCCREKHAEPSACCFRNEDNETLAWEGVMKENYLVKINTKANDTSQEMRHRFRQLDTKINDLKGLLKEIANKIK

Row | Structure (SMILES) | inhibition at 0.2 µM | IC50
1 | Cc1oc(C(C)(C)C)cc1-c1nc2cc(-c3ccccc3F)ccc2[nH]1 [Compound 174, 2-(5-tert-Butyl-2-methyl-furan-3-yl)-5-(2-fluoro-phenyl)-1H-benzimidazole sodium salt] | 83% | 33.4 nM
2 | Cc1nc(C(C)(C)C)oc1-c1nc2cc(-c3ccccc3F)cc(C(F)(F)F)c2[nH]1 [Compound 175, 2-(2-tert-Butyl-4-methyl-oxazol-5-yl)-5-(2-fluoro-phenyl)-7-trifluoromethyl-1H-benzimidazole hydrochloride] | 48% | 
3 | Cc1nc(C(C)(C)C)oc1-c1nc2cc(-c3ccccc3OC(F)(F)F)cc(C(F)(F)F)c2[nH]1 [Compound 176, 2-(2-tert-Butyl-4-methyl-oxazol-5-yl)-5-(2-trifluoromethoxy-phenyl)-7-trifluoromethyl-1H-benzimidazole hydrochloride] | 60% | 
4 | Cc1nc(C(C)(C)C)oc1-c1nc2cc(-c3ccccc3C(F)(F)F)cc(C(F)(F)F)c2[nH]1 [Compound 177, 2-(2-tert-Butyl-4-methyl-oxazol-5-yl)-7-trifluoromethyl-5-(2-trifluoromethyl-phenyl)-1H-benzimidazole hydrochloride] | 11% | 
5 | Cc1nc(C(C)(C)C)oc1-c1nc2cc(-c3ccccc3)cc(C(F)(F)F)c2[nH]1 [Compound 178, 2-(2-tert-Butyl-4-methyl-oxazol-5-yl)-5-phenyl-7-trifluoromethyl-1H-benzimidazole hydrochloride] | 17% | 
6 | Cc1nc(C(C)(C)C)oc1-c1nc2cc(-c3ccccc3Cl)cc(C(F)(F)F)c2[nH]1 [Compound 179, 2-(2-tert-Butyl-4-methyl-oxazol-5-yl)-5-(2-chloro-phenyl)-7-trifluoromethyl-1H-benzimidazole hydrochloride] | 18% | 
7 | Cc1nc(C(C)(C)C)oc1-c1nc2cc(-c3ccccc3)cc(Cl)c2[nH]1 [Compound 180, 2-(2-tert-Butyl-4-methyl-oxazol-5-yl)-7-chloro-5-phenyl-1H-benzimidazole hydrochloride] | 6% | 
8 | Cc1nc(C(C)(C)C)oc1-c1nc2cc(-c3ccccc3Cl)cc(Cl)c2[nH]1 [Compound 181, 2-(2-tert-Butyl-4-methyl-oxazol-5-yl)-7-chloro-5-(2-chloro-phenyl)-1H-benzimidazole hydrochloride] | 15% | 
9 | Cc1nc(C(C)(C)C)oc1-c1nc2cc(-c3ccccc3F)cc(Cl)c2[nH]1 [Compound 182, 2-(2-tert-Butyl-4-methyl-oxazol-5-yl)-7-chloro-5-(2-fluoro-phenyl)-1H-benzimidazole hydrochloride] | 26% | 

Continued, values first:

Row | inhibition at 0.2 µM | IC50 | Structure (SMILES)
10 | 4% |  | Cc1nc(C(C)(C)C)oc1-c1nc2cc(-c3ccccc3OC(F)(F)F)cc(Cl)c2[nH]1 [Compound 183, 2-(2-tert-Butyl-4-methyl-oxazol-5-yl)-7-chloro-5-(2-trifluoromethoxy-phenyl)-1H-benzimidazole hydrochloride]
11 | 101% | 6.4 nM | Cc1oc(C(C)(C)C)c(C#N)c1-c1nc2cc(-c3ccccc3C(F)(F)F)cc(C(F)(F)F)c2[nH]1 [Compound 184, 2-tert-Butyl-5-methyl-4-[7-trifluoromethyl-5-(2-trifluoromethyl-phenyl)-1H-benzimidazol-2-yl]-furan-3-carbonitrile sodium salt]
12 | 99% | 13.8 nM | Cn1nc(C(C)(C)C)c(C(F)(F)F)c1-c1nc2cc(-c3ccccc3F)cc(C(F)(F)F)c2[nH]1 [Compound 185, 2-(5-tert-Butyl-2-methyl-4-trifluoromethyl-2H-pyrazol-3-yl)-5-(2-fluoro-phenyl)-7-trifluoromethyl-1H-benzimidazole sodium salt]
13 | 99% | 20 nM | Cn1nc(C(C)(C)C)c(C(F)(F)F)c1-c1nc2cc(-c3ccccc3Cl)cc(C(F)(F)F)c2[nH]1 [Compound 186, 2-(5-tert-Butyl-2-methyl-4-trifluoromethyl-2H-pyrazol-3-yl)-5-(2-chloro-phenyl)-7-trifluoromethyl-1H-benzimidazole sodium salt]
14 | 100% | 14.7 nM | Cn1nc(C(C)(C)C)c(C(F)(F)F)c1-c1nc2cc(-c3ccccc3C(F)(F)F)cc(C(F)(F)F)c2[nH]1 [Compound 187, 2-(5-tert-Butyl-2-methyl-4-trifluoromethyl-2H-pyrazol-3-yl)-7-trifluoromethyl-5-(2-trifluoromethyl-phenyl)-1H-benzimidazole sodium salt]
15 | 99% | 35 nM | Cn1nc(C(C)(C)C)c(C(F)(F)F)c1-c1nc2cc(-c3ccccc3OC(F)(F)F)cc(C(F)(F)F)c2[nH]1 [Compound 188, 2-(5-tert-Butyl-2-methyl-4-trifluoromethyl-2H-pyrazol-3-yl)-5-(2-trifluoromethoxy-phenyl)-7-trifluoromethyl-1H-benzimidazole sodium salt]
16 | 99% | 10.6 nM | Cn1nc2c(c1-c1nc3cc(-c4ccccc4C(F)(F)F)cc(C(F)(F)F)c3[nH]1)CCC21CCCCC1 [Compound 189]
17 |  | 30 nM | CC(C)(C)c1nnc(-c2nc3cc(-c4ccccc4C(F)(F)F)cc(C(F)(F)F)c3[nH]2)o1 [Compound 190, 2-(5-tert-Butyl-[1,3,4]oxadiazol-2-yl)-7-trifluoromethyl-5-(2-trifluoromethyl-phenyl)-1H-benzimidazole sodium salt]
18 |  | 7.5 nM | Cn1nc(C(C)(C)C)nc1-c1nc2cc(-c3ccccc3C(F)(F)F)cc(C(F)(F)F)c2[nH]1 [Compound 192, 2-(5-tert-Butyl-2-methyl-2H-[1,2,4]triazol-3-yl)-7-trifluoromethyl-5-(2-trifluoromethyl-phenyl)-1H-benzimidazole sodium salt]
19 | 18% |  | Cc1oc(-c2nc3cc(-c4ccccc4F)cc(C(F)(F)F)c3[nH]2)nc1C(C)(C)C [Compound 193, 2-(4-tert-Butyl-5-methyl-oxazol-2-yl)-5-(2-fluoro-phenyl)-7-trifluoromethyl-1H-benzimidazole hydrochloride]
20 | 63% |  | Cc1oc(-c2nc3cc(-c4ccccc4C(F)(F)F)cc(C(F)(F)F)c3[nH]2)nc1C(C)(C)C [Compound 194, 2-(4-tert-Butyl-5-methyl-oxazol-2-yl)-7-trifluoromethyl-5-(2-trifluoromethyl-phenyl)-1H-benzimidazole hydrochloride]
21 | 46% |  | Cc1oc(-c2nc3cc(-c4ccccc4OC(F)(F)F)cc(C(F)(F)F)c3[nH]2)nc1C(C)(C)C [Compound 195, 2-(4-tert-Butyl-5-methyl-oxazol-2-yl)-5-(2-trifluoromethoxy-phenyl)-7-trifluoromethyl-1H-benzimidazole hydrochloride]
22 | 39% |  | Cc1oc(-c2nc3cc(-c4ccccc4Cl)cc(C(F)(F)F)c3[nH]2)nc1C(C)(C)C [Compound 196, 2-(4-tert-Butyl-5-methyl-oxazol-2-yl)-5-(2-chloro-phenyl)-7-trifluoromethyl-1H-benzimidazole hydrochloride]
